Measurements: patent US20240254510A1, “METHODS FOR GENERATING MECHANICALLY-RESPONSIVE CELLS AND USES THEREOF” (Washington University, priority 2021, published 2024)

How the values were obtained:
TRPV4 [1] = biological target: T1, TRPV4 (Sus scrofa, UniProt B3VP30); assay: IL-1Ra production by mechanogenetic cartilage constructs (ELISA); type: cell-based, porcine; settings: NFKBr-IL1Ra tissues, 1 nM GSK101 3 hours/day over 5 days vs DMSO
T1 construct: endogenous in cells; host or cells: primary porcine articular chondrocytes (femurs of pigs from a local abattoir)
Description: Synthetic mechanogenetic circuits respond to TRPV4 activation to drive transgene expression: TRPV4 activation in response to mechanical loading up-regulates a diverse group of targeted genes. On the basis of the TRPV4-activated signaling pathway, activation of the nuclear factor κ light chain enhancer of activated B cells (NF-κB) pathway was identified and up-regulation of the prostaglandin-endoperoxide synthase 2 (PTGS2) gene as two distinct avenues to construct TRPV4-responsive synthetic mechanogenetic gene circuits. […]
Osmotic stimulation—For calcium imaging studies, osmotic loading media were prepared using Hanks' balanced salt solution medium (Gibco). […] These media were titrated to hypo-osmotic media by adding distilled water and measured with a freezing point osmometer (Osmette 2007; Precision Systems). […]
Mechanogenetic circuit testing outcome measures: Assessing mechanogenetic tissue construct activation in IL-1Ra-producing constructs was measured with an enzyme-linked immunosorbent assay for mouse IL-1Ra (R&D Systems) according to the manufacturer's protocols. […]

TRPV4 [2] = assay: RNA-sequencing of tissue engineered cartilage: mechanical loading, GSK101, IL-1α; type: cell-based; settings: GSK101 TRPV4 activation, 24 hour time course
Procedure: RNA-sequencing was performed to assess mechanically-sensitive gene targets that are distinct from a cellular inflammation response. […] Targets of interest were selected as targets that were shared between stimulation to mechanical loading and GSK101 agonist activation of TRPV4 but not stimulated by IL-1α inflammation.

TRPV4 [3] = biological target: T1, TRPV4; assay: Microarray transcriptomic profile of engineered cartilage after mechanical loading or GSK101; type: cell-based, porcine
Description: TRPV4 activation in chondrocytes induces transient anabolic and inflammatory signaling networks: Next, it was sought to understand the time course of specific downstream signaling pathways and GRNs regulated by mechanical activation of TRPV4 using microarray analysis. Because TRPV4 is a multimodal channel, downstream signaling is likely dependent on the activation mode as well as cell and tissue type. For these studies, primary porcine chondrocytes were cast in agarose to create engineered cartilage constructs and subjected to either compressive mechanical loading [10% sinusoidal peak-to-peak strain at 1 Hz for 3 hours as described previously] or pharmacologic stimulation with the TRPV4 agonist GSK101 (1 nM for 3 hours), or left unloaded (free-swelling controls), and measured the transcriptional activity at 0, 3, 12, and 20 hours following an initial round of stimulation and then at 24 and 72 hours after additional daily bouts of mechanical loading or GSK101 (n=3 per condition per time point; FIG. 3A). […] Up-regulation of these targets was immediate and subsided quickly, with transcript levels returning to baseline 12 to 20 hours after activation.
Microarray collection and analysis: After a 14-day preculture, engineered cartilage constructs (04 mm×2.25 mm) were stimulated under 10% compressive loading or 1 nM GSK101 for 3 hours per day for 3 days. Unstimulated controls (free-swelling) constructs were cultured under identical conditions. Immediately after stimulation, constructs were washed and then fed with culture medium. Constructs were snap-frozen in liquid N2 at 0, 3, 6, 12, 20, 24, and 72 hours after initial stimulation. Total RNA was extracted from the constructs using a pestle homogenizer and the Norgen Biotek RNA/protein purification plus kit. RNA quantity and quality were assessed with NanoDrop (Thermo Fisher Scientific) and the Agilent Bioanalyzer. Total RNA was processed using the Ambion WT expression labeling kit and the Porcine Gene 1.0 ST Array (Affymetrix). […]

Piezo1 = assay: RNA-seq of tissue engineered cartilage after 80% strain or Yoda1 stimulation; type: cell-based; settings: 80% strain or Yoda1, RNA-seq
Procedure: Tissue engineered cartilage tissues were either mechanically loaded to 80% strain or stimulated with the Piezo1 agonist Yoda1. Control tissues (FS group) were cultured in vehicle control media and left under free-swelling (non loaded) conditions. RNA-seq was used to assess the transcriptomic regulation to high mechanical loading or Yoda1-stimulation.
Volcano plot projections of gene targets that are differentially regulated by mechanical loading to 80% strain (FIG. 9 left graph) or Yoda1 stimulation (FIG. 9 right graph) display a range of targets that are regulated by Piezo1 stimulation (targets highlighted in red are |LFC|>1 and FDR (padj)<0.05).

T1 sequence (B3VP30 1-871): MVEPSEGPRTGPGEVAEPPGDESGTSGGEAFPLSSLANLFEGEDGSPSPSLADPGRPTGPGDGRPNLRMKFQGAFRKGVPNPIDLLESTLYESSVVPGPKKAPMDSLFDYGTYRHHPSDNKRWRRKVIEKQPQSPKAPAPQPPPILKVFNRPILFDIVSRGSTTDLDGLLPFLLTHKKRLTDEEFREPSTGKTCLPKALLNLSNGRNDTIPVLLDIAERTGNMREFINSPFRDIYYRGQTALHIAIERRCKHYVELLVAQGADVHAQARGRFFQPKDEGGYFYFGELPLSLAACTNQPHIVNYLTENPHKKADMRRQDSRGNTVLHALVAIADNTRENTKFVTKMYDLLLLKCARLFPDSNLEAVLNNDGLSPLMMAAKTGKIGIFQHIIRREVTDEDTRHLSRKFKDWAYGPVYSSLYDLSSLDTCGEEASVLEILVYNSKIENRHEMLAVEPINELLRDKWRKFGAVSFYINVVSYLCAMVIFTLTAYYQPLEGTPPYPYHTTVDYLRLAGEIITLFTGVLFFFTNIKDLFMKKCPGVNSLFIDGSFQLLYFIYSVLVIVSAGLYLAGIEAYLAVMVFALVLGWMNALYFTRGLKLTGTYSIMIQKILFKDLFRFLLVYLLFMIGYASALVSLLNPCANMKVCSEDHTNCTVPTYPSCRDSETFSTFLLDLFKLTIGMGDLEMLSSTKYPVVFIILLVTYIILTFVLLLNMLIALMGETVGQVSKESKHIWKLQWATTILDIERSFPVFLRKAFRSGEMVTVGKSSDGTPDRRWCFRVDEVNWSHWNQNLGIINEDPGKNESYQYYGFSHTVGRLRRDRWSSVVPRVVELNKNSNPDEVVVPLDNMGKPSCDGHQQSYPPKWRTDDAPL

CC(C)C[C@H](NC(=O)c1cc2ccccc2s1)C(=O)N1CCN(C(=O)[C@H](CO)NS(=O)(=O)c2ccc(Cl)cc2Cl)CC1 [GSK101]
circuit response to pharmacologic activation of TRPV4 (TRPV4 [1]): activated the NFKBr-IL1Ra circuit | regulation of FGF1, PMEPA1 and snora70 (TRPV4 [2]): significantly upregulated | genes commonly responsive to both mechanical loading and pharmacologic activation of TRPV4 (TRPV4 [3]; 0, 24 and 72 hours): 15 genes | transcripts repeatedly responsive to GSK101 supplementation (TRPV4 [3]; 0, 24 and 72 hours, daily bouts of 1 nM GSK101): 112 transcripts | transcripts up-regulated under both mechanical loading and pharmacologic stimulation (TRPV4 [3]; first 20 hours after initial stimulation, GSK101 1 nM for 3 hours, vs unloaded controls): 43 transcripts

Clc1cccc(Cl)c1CSc1nnc(-c2cnccn2)s1 [Yoda1]
gene targets similarly regulated by mechanical loading and Yoda1 stimulation (Piezo1): ADAMTS1, IGSF9B, PTGS2, NR4A2, LOC100512181, NR4A1, INHBA, and CSRNP2
